Article PMC7031696 (Cell chemical biology, 2019)
Where two headings read alike, the source gives them in different places.

Experiments:
[1] = system: 3D7-MR4 trophozoite parasite-infected RBCs; details: 10 × IC50^72h; ref Allman et al., 2016; cited from earlier work
[2] = system: Plasmodium falciparum 3D7-A10 parasites; assay: Stage specificity assay (8-h exposure of synchronized stages, IC50^8h); type: cell-based; details: for IC50: Plasmodium falciparum
[3] = system: asynchronous 3D7-A10 parasite cultures; assay: Standard 72-h exposure asexual blood stage susceptibility assay (IC50^72h); type: cell-based, Plasmodium falciparum; details: Plasmodium falciparum, 3D7, 72 h, read-out: Overall (72hr assay) Mean IC50 (IC50^72h)
[4] = system: 3D7-MR4 trophozoite parasite-infected RBCs; assay: Metabolomic profiling (hydrophilic metabolite changes, UHPLC-MS); type: cell-based, Plasmodium falciparum

Structure (SMILES): CCN(CC)CCCC(C)Nc1ccnc2cc(Cl)ccc12 (stereo not drawn) [Chloroquine, reference compound]
- increased levels of dAMP, dUTP, cytidine, xanthosine, and N-acetyl-lysine [1]: > 2 fold
- peptide levels (hemoglobin catabolism signature) [1]: more modest decrease in peptide levels
- IC50 ([2]; 3D7, read-out: Early rings Mean IC50 (IC50^8h)): 17.8 nM
- IC50 ([2]; 3D7, read-out: Early trophozoites Mean IC50 (IC50^8h)): 17.4 nM
- IC50 ([2]; 3D7, read-out: IC50^8h values): < 300 nM
- IC50 ([2]; 3D7, read-out: Late rings Mean IC50 (IC50^8h)): 18.6 nM
- IC50 ([2]; 3D7, read-out: Late trophozoites Mean IC50 (IC50^8h)): 30.1 nM
- IC50 ([2]; 3D7, read-out: Schizonts Mean IC50 (IC50^8h)): 60.3 nM
- IC50 [3]: 5.9 nM

Structure (SMILES): CC(C)C[C@@H](/C=C/S(C)(=O)=O)NC(=O)[C@H](CC(C)C)NC(=O)[C@H](Cc1c[nH]c2ccccc12)NC(=O)CN1CCOCC1 [WLL-vs, reference compound]
- changes within the set of metabolites detected (low fold change group) ([4]; 10 × IC50^72h, 2.5 hr, trophozoites): did not induce major changes
- Log2(fold changes) 3-phosphoglycerate ([4]; metabolite 3-phosphoglycerate, log2 fold change): -0.1339
- Log2(fold changes) 4-Pyridoxic acid ([4]; metabolite 4-Pyridoxic acid, log2 fold change): 0.0000
- Log2(fold changes) 4-aminobutyrate ([4]; metabolite 4-aminobutyrate, log2 fold change): -0.0215
- Log2(fold changes) 4-phosphopantetheine ([4]; metabolite 4-phosphopantetheine, log2 fold change): 0.0000
- Log2(fold changes) 4-phosphopantothenate ([4]; metabolite 4-phosphopantothenate, log2 fold change): -0.0913
- Log2(fold changes) 5-aminopentanoic acid ([4]; metabolite 5-aminopentanoic acid, log2 fold change): 0.0000
- Log2(fold changes) 5-methyl-THF ([4]; metabolite 5-methyl-THF, log2 fold change): 0.0000
- Log2(fold changes) 5-phosphoribosyl-1-pyrophosphate ([4]; metabolite 5-phosphoribosyl-1-pyrophosphate, log2 fold change): -0.1277
- Log2(fold changes) 6-phospho-D-gluconate ([4]; metabolite 6-phospho-D-gluconate, log2 fold change): -0.0373
- Log2(fold change) HVDD ([4]; metabolite HVDD): -0.5028
- Log2(fold change) Hydroxyisocaproic acid ([4]; metabolite Hydroxyisocaproic acid): 0.0000
- Log2(fold change) IDP ([4]; metabolite IDP): 0.0000
- Log2(fold change) IMP ([4]; metabolite IMP): 0.0400
- Log2(fold change) Inositol ([4]; metabolite Inositol): 0.0000
- Log2(fold change) Isopentyl-PP ([4]; metabolite Isopentyl-PP): 0.0000
- Log2(fold change) L-arginino-succinate ([4]; metabolite L-arginino-succinate): 0.0000
- Log2(fold change) LD ([4]; metabolite LD): 0.0000
- Log2(fold change) Myristoyl/tetradecanoyl-CoA ([4]; metabolite Myristoyl/tetradecanoyl-CoA): 0.0000
- Log2(fold change) N-Acetyl-L-alanine ([4]; metabolite N-Acetyl-L-alanine): -0.0632
- Log2(fold change) N-acetyl-L-ornithine ([4]; metabolite N-acetyl-L-ornithine): -0.0046
- Log2(fold change) N-acetyl-glucosamine-1/6-phosphate ([4]; metabolite N-acetyl-glucosamine-1/6-phosphate): -0.0854
- Log2(fold change) N-acetyl-glutamate ([4]; metabolite N-acetyl-glutamate): 0.1610
- Log2(fold change) N-acetyl-glutamine ([4]; metabolite N-acetyl-glutamine): 0.0000
- Log2(fold change) N-carbamoyl-L-aspartate ([4]; metabolite N-carbamoyl-L-aspartate): 0.1147
- Log2(fold change) NAD+ ([4]; metabolite NAD+): 0.0000
- Log2(fold change) NADH ([4]; metabolite NADH): 0.3385
- Log2(fold change) NADP+ ([4]; metabolite NADP+): -0.1225
- Log2(fold change) NADPH ([4]; metabolite NADPH): 0.0976
- Log2(fold change) O-acetyl-L-serine ([4]; metabolite O-acetyl-L-serine): 0.0000
- Log2(fold change) Octoluse 8/1P ([4]; metabolite Octoluse 8/1P): 0.0000
- Log2(fold change) Octoluse Bisphosphate ([4]; metabolite Octoluse Bisphosphate): -0.1506
- Log2(fold change) PD ([4]; metabolite PD): -0.2643
- Log2(fold change) PE ([4]; metabolite PE): -0.3236
- Log2(fold change) PEE ([4]; metabolite PEE): -0.1344
- Log2(fold change) PEEK ([4]; metabolite PEEK): 0.0000
- Log2(fold change) PVNF ([4]; metabolite PVNF): -0.5296
- Log2(fold change) Pyroglutamic acid ([4]; metabolite Pyroglutamic acid): 0.0000
- Log2(fold change) Pyrophosphate ([4]; metabolite Pyrophosphate): 0.0000
- Log2(fold change) Ribose-5-phosphate ([4]; metabolite Ribose-5-phosphate): -0.2996
- Log2(fold change) S-adenosyl-L-homocysteine ([4]; metabolite S-adenosyl-L-homocysteine): -0.2761
- Log2(fold change) S-adenosyl-L-methioninamine ([4]; metabolite S-adenosyl-L-methioninamine): 0.0000
- Log2(fold change) S-adenosyl-L-methionine ([4]; metabolite S-adenosyl-L-methionine): 0.0000
- Log2(fold change) S-methyl-5'-thioadenosine ([4]; metabolite S-methyl-5'-thioadenosine): 0.0000
- Log2(fold change) SD ([4]; metabolite SD): -0.1301
- Log2(fold change) SDL ([4]; metabolite SDL): 0.0000
- Log2(fold change) SID ([4]; metabolite SID): -0.3691
- Log2(fold change) Sedoheptulose bisphosphate ([4]; metabolite Sedoheptulose bisphosphate): -0.1909
- Log2(fold change) Thiamine pyrophosphate ([4]; metabolite Thiamine pyrophosphate): 0.0000
- Log2(fold changes) UDP-D-glucose ([4]; metabolite UDP-D-glucose, log2 fold change): -0.0066
- Log2(fold changes) UDP-D-glucuronate ([4]; metabolite UDP-D-glucuronate, log2 fold change): -0.1270
- Log2(fold changes) UDP-N-acetyl-glucosamine ([4]; metabolite UDP-N-acetyl-glucosamine, log2 fold change): -0.0647
- Log2(fold changes) UDP ([4]; metabolite UDP, log2 fold change): -0.3774
- Log2(fold changes) UMP ([4]; metabolite UMP, log2 fold change): 0.1341
- Log2(fold changes) UTP ([4]; metabolite UTP, log2 fold change): -0.1532
- Log2(fold change) hydroxyphenylpyruvate ([4]; metabolite hydroxyphenylpyruvate): 0.0000
- Log2(fold change) hydroxyproline/Aminolevulinate ([4]; metabolite hydroxyproline/Aminolevulinate): -0.0172
- Log2(fold change) hypoxanthine ([4]; metabolite hypoxanthine): 0.1957
- Log2(fold change) indole ([4]; metabolite indole): 0.0000
- Log2(fold change) inosine ([4]; metabolite inosine): 0.0926
- Log2(fold change) isoleucine ([4]; metabolite isoleucine): 0.0638
- Log2(fold change) lactate ([4]; metabolite lactate): -0.1762
- Log2(fold change) leucine ([4]; metabolite leucine): -0.0424
- Log2(fold change) lysine ([4]; metabolite lysine): 0.0000
- Log2(fold change) malate ([4]; metabolite malate): -0.1070
- Log2(fold change) maleic acid ([4]; metabolite maleic acid): -0.1330
- Log2(fold change) methionine ([4]; metabolite methionine): 0.1427
- Log2(fold change) myo-inositol ([4]; metabolite myo-inositol): 0.0000
- Log2(fold change) nicotinamide mononucleotide ([4]; metabolite nicotinamide mononucleotide): 0.0000
- Log2(fold change) nicotinate ([4]; metabolite nicotinate): 0.0441
- Log2(fold change) ornithine ([4]; metabolite ornithine): 0.0000
- Log2(fold change) orotate ([4]; metabolite orotate): -0.0939
- Log2(fold change) orotidine-5'-phosphate ([4]; metabolite orotidine-5'-phosphate): -0.0654
- Log2(fold change) oxaloacetate ([4]; metabolite oxaloacetate): 0.0000
- Log2(fold change) p-aminobenzoate ([4]; metabolite p-aminobenzoate): 0.0000
- Log2(fold change) p-hydroxybenzoate ([4]; metabolite p-hydroxybenzoate): 0.0000
- Log2(fold change) pantothenate ([4]; metabolite pantothenate): -0.2167
- Log2(fold change) phenylalanine ([4]; metabolite phenylalanine): 0.0156
- Log2(fold change) phenylpyruvate ([4]; metabolite phenylpyruvate): 0.0000
- Log2(fold change) phosphoenolpyruvate ([4]; metabolite phosphoenolpyruvate): -0.0337
- Log2(fold change) prephenate ([4]; metabolite prephenate): 0.0000
- Log2(fold change) proline ([4]; metabolite proline): -0.1122
- Log2(fold change) pyridoxine ([4]; metabolite pyridoxine): 0.0678
- Log2(fold change) pyruvate ([4]; metabolite pyruvate): -0.3415
- Log2(fold change) riboflavin ([4]; metabolite riboflavin): 0.0000
- Log2(fold change) ribose ([4]; metabolite ribose): 0.1290
- Log2(fold change) ribose-phosphate ([4]; metabolite ribose-phosphate): -0.4836
- Log2(fold change) ribulose-5-phosphate ([4]; metabolite ribulose-5-phosphate): -0.5090
- Log2(fold change) serine ([4]; metabolite serine): -0.0671
- Log2(fold change) sn-glycerol-3-phosphate ([4]; metabolite sn-glycerol-3-phosphate): -0.0482
- Log2(fold change) succinate/Methylmalonic acid ([4]; metabolite succinate/Methylmalonic acid): 0.1064
- Log2(fold change) succinyl-CoA/methylmalonyl-CoA ([4]; metabolite succinyl-CoA/methylmalonyl-CoA): -0.0054
- Log2(fold change) taurine ([4]; metabolite taurine): 0.0000
- Log2(fold change) thiamine ([4]; metabolite thiamine): 0.0000
- Log2(fold change) threonine/homoserine ([4]; metabolite threonine/homoserine): -0.1507
- Log2(fold change) thymidine ([4]; metabolite thymidine): 0.0000
- Log2(fold changes) thymine ([4]; metabolite thymine, log2 fold change): 0.0000
- Log2(fold changes) trehalose-6-Phosphate ([4]; metabolite trehalose-6-Phosphate, log2 fold change): 0.0000
- Log2(fold changes) tryptophan ([4]; metabolite tryptophan, log2 fold change): -0.0680
- Log2(fold changes) tyrosine ([4]; metabolite tyrosine, log2 fold change): -0.0190
- Log2(fold changes) uridine ([4]; metabolite uridine, log2 fold change): 0.0000
- IC50 ([2]; 3D7, read-out: Early rings Mean IC50 (IC50^8h), 8-h exposure 0–8 hr, 3D7-A10, survival at 60 h): 23.7 nM
- IC50 ([2]; 3D7, read-out: Early trophozoites Mean IC50 (IC50^8h), 8-h exposure 16–24 hr, 3D7-A10, survival at 60 h): 57.6 nM
- IC50 ([2]; 3D7, read-out: Late rings Mean IC50 (IC50^8h), 8-h exposure 8–16 hr, 3D7-A10, survival at 60 h): 29.4 nM
- IC50 ([2]; 3D7, read-out: Late trophozoites Mean IC50 (IC50^8h), 8-h exposure 24–32 hr, 3D7-A10, survival at 60 h): 47.1 nM
- IC50 ([2]; 3D7, read-out: Schizonts Mean IC50 (IC50^8h), 8-h exposure 32–40 hr, 3D7-A10, survival at 60 h): 50.1 nM
- Stage of peak activity (Figure 6) ([2]; period when the parasite was most susceptible (lowest IC50^8h)): ring stages
- IC50 [3]: 7.2 nM
